Values belong to the compound of their own block, whether it stands above or below them. Where a SMILES comes first, the peptide text is derived from it. Bridges are numbered along the chain shown (N, C = ends). The star is where a group is joined. Cbz = O=C(OCc1ccccc1)*; CH2F = FC*
Tests used:
[1] = test system: p21 Thr145 phosphorylation, survivin expression, AKT activation; assay: Western blot of intracellular events (AKT, phospho-p21 Thr145, survivin); format: cell-based; conditions: 786-O cells, 12 h, increasing concentrations of CX-4945 (Figure S1)
Experimental: This was confirmed using the LIVE&DEAD^TM cell viability assay that provides a visual readout of cell integrity (Figure 8A lower panel). This cellular effect was also analyzed after treatment of WT or CK2β-depleted MCF-10A cells with increasing concentrations of TAT-Pc 13. TAT-Pc 13 caused a cell death in both cell types, which was already detectable at a concentration of 25 µM and became massive at 50–60 µM (Figure 8B). […] In order to investigate the intracellular events induced by TAT-Pc 13, MCF-10A cells were incubated with increasing concentrations of TAT-Pc 13 and analyzed by Western blot.
Figure 8 Cellular effects of TAT-Pc 13. (A) MCF-10A cells were incubated with 25 µM of TAT-Pc 13 for 3 h and imaged with phase microscopy (upper panel) or with increasing concentrations of TAT-Pc 13 for 2 h and cell viability was evaluated using the LIVE&DEAD™ assay. Live cells fluoresce bright green (530 nm), whereas dead cells fluoresce red-orange (645 nm) (lower panel, scale bare: 100 µm); (B) WT (○-○) or CK2β-depleted (●-●) MCF-10A cells were incubated for 4 h with increasing concentrations of TAT-Pc 13 and cell death was evaluated using the LIVE&DEAD™ assay recording fluorescence at 645 nm. Representative data shown from two independent experiments in duplicate; (C) MCF-10A cells were pre-treated in the absence or presence of 20 µM z-VAD for 5 h and then incubated for 4 h with 25 µM random TAT-Pc 13 or TAT-Pc 13 and cell viability was evaluated as in (A) (scale bare: 100 µm); and (D) intracellular events induced by increasing concentrations of TAT-Pc 13. After 12 h of treatment, 786-O cells were lysed and analyzed by Western blot. TEXT PRINTED IN THE PICTURE: (B) TAT-Pc 13: TAT-Pc 13 (μM): 48; TAT-Pc 13 (μM): 60 DOUBTS OF THE COPYIST ABOUT THIS PICTURE: Panel B: 48 and 60 are printed in red at the x axis, where dashed lines drop from the two curves at about 50 on the Cell death (%) axis. No measure name (e.g. IC50) is printed with them. […]

WT MCF-10A cells = assay: Cell death / viability, LIVE&DEAD assay, WT cells; format: cell-based; conditions: MCF-10A; 20 µM z-VAD or 30 µM Necrostatin-1 for 5 h, then 25 µM TAT-Pc 13 for 4 h
Experimental: Figure 8 Cellular effects of TAT-Pc 13. (A) MCF-10A cells were incubated with 25 µM of TAT-Pc 13 for 3 h and imaged with phase microscopy (upper panel) or with increasing concentrations of TAT-Pc 13 for 2 h and cell viability was evaluated using the LIVE&DEAD™ assay. Live cells fluoresce bright green (530 nm), whereas dead cells fluoresce red-orange (645 nm) (lower panel, scale bare: 100 µm); (B) WT (○-○) or CK2β-depleted (●-●) MCF-10A cells were incubated for 4 h with increasing concentrations of TAT-Pc 13 and cell death was evaluated using the LIVE&DEAD™ assay recording fluorescence at 645 nm. Representative data shown from two independent experiments in duplicate; (C) MCF-10A cells were pre-treated in the absence or presence of 20 µM z-VAD for 5 h and then incubated for 4 h with 25 µM random TAT-Pc 13 or TAT-Pc 13 and cell viability was evaluated as in (A) (scale bare: 100 µm); and (D) intracellular events induced by increasing concentrations of TAT-Pc 13. After 12 h of treatment, 786-O cells were lysed and analyzed by Western blot. TEXT PRINTED IN THE PICTURE: (B) TAT-Pc 13: TAT-Pc 13 (μM): 48; TAT-Pc 13 (μM): 60 DOUBTS OF THE COPYIST ABOUT THIS PICTURE: Panel B: 48 and 60 are printed in red at the x axis, where dashed lines drop from the two curves at about 50 on the Cell death (%) axis. No measure name (e.g. IC50) is printed with them.
Cells were seeded in 96-well microtiter plates at a concentration of 1 × 10^5 cells/mL and were allowed to attach for 24 h at 37 °C in 5% CO2. Cells were then exposed to different concentrations of TAT-Pc 13 for the indicated time. Cell viability was evaluated using the fluorescence-based LIVE&DEAD™ assay (Molecular Probes, Thermo Fisher Scientific, Courtaboeuf, France) according to the manufacturer. Images were taken with an Apotome-equipped Zeiss Axioimager microscope (Zeiss, Oberkochen, German) recording the fluorescence at 530 nm (Live cells) and 645 nm (dead cells) respectively using a FluoStar Optima plate reader (BMG LabTech, Ortenberg, Germany).

CK2 holoenzyme = target: T1, CK2 holoenzyme (Homo sapiens, UniProt P68400); assay: CK2 kinase assay with CK2β-dependent eIF2β-derived peptide substrate; format: biochemical; conditions: result in words
T1 construct: made in house
Description: In a previous study, we used the X-ray structure of CK2β in the holoenzyme complex as a template for the design of a conformationally constrained 13-mer peptide (Pc 13) derived from the CK2β C-terminal domain and centred around the Tyr188 and Phe190 hotspots. Pc 13 is an eight-residue peptide (Arg186–His193) that contains a cluster of hydrophobic residues (Leu187, Tyr188 and Ile192) and three additional glycine residues, cyclized via two cysteine residues to ‘staple’ its conformation and to mimic the binding face of CK2β with CK2α [15]. […]
Figure 2 CK2β-derived cyclic peptides inhibit CK2 activity in vitro. […] Phosphorylated proteins were separated by SDS/PAGE (Sodium dodecylsulfate/ Polyacrylamide gel electrophoresis) and analyzed by autoradiography. […]
Figure 4 Inhibitory activity of a TAT-Pc analogue in vitro. […] CK2 activity was then determined with CK2β-dependent or independent peptide substrates; (B) [^35S]-labeled CK2α was incubated with biotinylated MBP-CK2β immobilized on streptavidin coated plates (preformed complex) in the absence (1) or presence (2) of TAT-Pc 13. […] After washing, the amount of [^35S]-labeled CK2α remaining in the complex was determined by radioactivity counting. […]

[2] = target: T2, CK2 holoenzyme (CK2α + CK2β) (Homo sapiens, UniProt P68400); assay: CK2-mediated phosphorylation of GST-Olig2 and of CK2β (autoradiography); format: biochemical; conditions: 25 µM peptide
T2 construct: made in house
Experimental: Figure 2 CK2β-derived cyclic peptides inhibit CK2 activity in vitro. (A) a series of cyclized CK2β-derived peptide analogues varying in length from eight to 11 amino acids were tested for their effect on the phosphorylation of eIF2β-derived peptide substrate whose phosphorylation relies on the holoenzyme formation. Representative data shown from two independent experiments; (B) structure of Pc 11 (CC); (C) antagonist effect of Pc 11 (CC) on CK2-mediated phosphorylation of the CK2β-dependent substrate Olig2. CK2α was incubated alone or with CK2β in the absence or presence of 25 µM random Pc 11 (CC) or Pc 11 (CC) for 15 min at 4 °C, followed by the addition of GST (Gluthatione S-Transferase)-Olig2 (5 μg) and 25 μM [γ-^32P]ATP/MgCl2 for 5 min at room temperature. Phosphorylated proteins were separated by SDS/PAGE (Sodium dodecylsulfate/ Polyacrylamide gel electrophoresis) and analyzed by autoradiography. The gel was stained with coomassie blue to visualize GST-Olig2. TEXT PRINTED IN THE PICTURE: (A) no label printed: IC50 = 1-3 μM DOUBTS OF THE COPYIST ABOUT THIS PICTURE: Panel A: "IC50 = 1-3 μM" is printed once inside the plot, near the falling curves, and is not tied to any one peptide.

T2 sequence (P68400 whole entry): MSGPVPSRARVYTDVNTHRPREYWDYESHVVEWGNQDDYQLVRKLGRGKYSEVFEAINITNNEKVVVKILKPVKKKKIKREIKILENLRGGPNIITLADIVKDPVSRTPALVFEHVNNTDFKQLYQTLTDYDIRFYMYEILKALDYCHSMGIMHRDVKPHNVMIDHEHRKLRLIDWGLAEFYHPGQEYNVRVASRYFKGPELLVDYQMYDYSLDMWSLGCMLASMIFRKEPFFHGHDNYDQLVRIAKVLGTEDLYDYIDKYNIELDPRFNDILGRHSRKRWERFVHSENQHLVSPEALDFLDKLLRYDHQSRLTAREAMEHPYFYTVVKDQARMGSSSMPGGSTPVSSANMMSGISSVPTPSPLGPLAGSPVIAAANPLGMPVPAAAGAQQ
T1 sequence (P68400 whole entry): as above

Structure (SMILES): O=C(O)c1ccc2c(c1)nc(Nc1cccc(Cl)c1)c1ccncc12 [CX-4945, 5-(3-chlorophenylamino)benzo[c][2,6]naphthyridine-8-carboxylic acid, reference compound]
- phosphorylation of p21 [1]: strongly inhibited

Structure (SMILES): CN1C(=O)C(Cc2c[nH]c3ccccc23)NC1=S (stereo not drawn) [Necrostatin-1, reference compound]
- effect of inhibitor pre-treatment on TAT-Pc 13-induced cell death (WT MCF-10A cells): prevented

- effect on phosphorylation of eIF2β peptide substrate (CK2 holoenzyme): inactive
Structure (SMILES): CC(C)C[C@@H]1NC(=O)[C@H](CCCNC(=N)N)NC(=O)[C@@H](N)CSSC[C@@H](C(=O)O)NC(=O)[C@H](CCCCN)NC(=O)[C@H](Cc2ccccc2)NC(=O)CNC(=O)[C@H](Cc2ccc(O)cc2)NC1=O [Pc 8 (CC)] (H-CRLYGFKC-OH; disulfide 1-8)

- phosphorylation of CK2β in the holoenzyme [2]: significantly affected
- Olig-2 phosphorylation ([2]; 15 min at 4 °C, then GST-Olig2 and 25 μM ATP for 5 min at room temperature): strong decrease
Structure (SMILES): CC[C@H](C)[C@@H]1NC(=O)[C@H](CCCCN)NC(=O)[C@H](Cc2ccccc2)NC(=O)CNC(=O)[C@H](Cc2ccc(O)cc2)NC(=O)[C@H](CC(C)C)NC(=O)[C@H](CCCNC(=N)N)NC(=O)[C@@H](N)CSSC[C@@H](C(=O)O)NC(=O)CNC(=O)[C@H](Cc2c[nH]cn2)NC1=O [Pc 11 (CC)] (H-CRLYGFKIHGC-OH; disulfide 1-11)

Structure (SMILES): COC(=O)C[C@H](NC(=O)[C@H](C)NC(=O)[C@@H](NC(=O)OCc1ccccc1)C(C)C)C(=O)CF [z-VAD-FMK, reference compound] (Cbz-Val-Ala-Asp(OMe)-CH2F)
- effect of inhibitor pre-treatment on TAT-Pc 13-induced cell death (WT MCF-10A cells): insensitive

From article PMC5374420, “In Search of Small Molecule Inhibitors Targeting the Flexible CK2 Subunit Interface” (Pharmaceuticals, 2017)
